In patent US20050197331A1, “Novel anti-inflammatory and analgesic heterocyclic amidines that inhibit nitrogen oxide (NO) production” (ROTTAPHARM SPA, priority 2004, published 2005):
pIC50: −log10 of the molar value.

Legend:
PGE2 = experiment: Inhibition of PGE2 formation in rabbit articular chondrocytes stimulated with IL-1β (RIA); format: cell-based; details: rabbit articular chondrocytes, IL-1β 1 ng/ml, 48 hours, RIA; for pIC50: Oryctolagus cuniculus, Chondrocyte, read-out: Inhibition % IC50 PGE2
Protocol: (§1) a) The inhibitory activity on the formation of NO measured as NO2^− (nitrite) and PGE2 was studied in vitro on culture media of rabbit articular chondrocytes stimulated with the cytokine IL-1β (1 ng/ml) for 48 hours. For the preparation of the chondrocytes, the method described by Berenbaum et al. [FEBS Letters 340, 51-55 (1994)] was followed. Briefly, fragments of cartilage removed aseptically from the articular heads of rabbit shoulder, hip and knee were finely ground and digested at 37° C. in hyaluronidase, trypsin and collagenase solutions, giving, after filtration through sterile gauze and centrifugation at 600×g and suitable dilution with 10% DMEM-FCS 10%, a concentration per well of about 1×10^5 cells. The cells were maintained under these conditions until confluent (about 15 days), the medium being replaced every 3 days. At this point, the test products dissolved in the medium were added to each sample and, after 20 minutes, 350 μl of IL-1β were added, to give a final concentration of 1 ng/ml. The stimulation lasted 48 hours at 37° C. (incubation in air/7% CO2). A nitrite assay was subsequently performed on the cell supernatant, as described by Green et al. [Anal. Biochem. 126, 131-138 (1982)], and of PGE2 by RIA assay. The results obtained are shown in Table 3, in which is given, for a number of the compounds that are the subject of the invention and that are already illustrated in Table 1, the IC50, i.e. the concentration (micromolar) of antagonist capable of inhibiting the formation of nitrites and PGE2 by 50% relative to the control group, i.e. relative to the cells stimulated with IL-1β but without addition of antagonists.

[1] = test system: rabbit articular chondrocytes; experiment: Cellular toxicity on rabbit articular chondrocytes; format: cell-based; details: noted beside IN in Table 3
Protocol: as §1

Row | pIC50 (PGE2) | melting point [°C] | Compound | Tox = cellular toxicity (concentration) [1] [µM] | Inhibition % IC50 PGE2 (PGE2)
1 | 5.13 | 203 to 204.7 | COc1ccc(-c2nc3cc(NC(C)=N)ccc3s2)cc1 [Compound 15, N-[2-(4-methoxyphenyl)benzothiazol-5-yl]acetamidine] | 30 | –
2 | 5.72 | 212.2 to 213.5 | CC(=N)Nc1ccc2nc(-c3ccc(Cl)cc3)sc2c1 [Compound 3, N-[2-(4-chlorophenyl)benzothiazol-6-yl]acetamidine] | 30 | –
3 | – | 156.4 to 158.3 | COc1ccc(-c2nc3cc(NC(C)=N)ccc3s2)c(OC)c1 [Compound 16, N-[2-(2,4-dimethoxyphenyl)benzothiazol-5-yl]acetamidine] | 30 | IN (IN = <25% inhibitory activity at 30 × 10^−6M)
4 | 5.89 | 141.6 to 145.6 | COc1cccc(-c2nc3cc(NC(C)=N)ccc3s2)c1 [Compound 17, N-[2-(3-methoxyphenyl)benzothiazol-5-yl]acetamidine] | 30 | –
5 | – | 184.6 to 185.8 | CC(=N)Nc1ccc2c(c1)cc(-c1ccccc1)n2C [Compound 6, N-(1-methyl-2-phenyl-1H-indol-5-yl)acetamidine] | 30 | IN (IN = <25% inhibitory activity at 30 × 10^−6M)
6 | 5.23 | 163 to 165 | COc1ccccc1-c1nc2cc(NC(C)=N)ccc2s1 [Compound 10, N-[2-(2-methoxyphenyl)benzothiazol-5-yl]acetamidine] | 100 | –
